{"source": "ChEMBL document CHEMBL3044569", "about": "“Mini-plot field experiments using seed dressings to control slug damage to oilseed rape” (Crop Prot, 2006)", "key": {"Deroceras reticulatum [1]": {"tested_on": "Deroceras reticulatum", "experiment": "Pesticidal activity against Deroceras reticulatum infected oilseed rape assessed as protection against slug damage studied in spring applied as pellet at 8 kg product/ha after 1 to 4 weeks relative to untreated control", "type": "functional, organism-based"}, "Deroceras reticulatum [2]": {"tested_on": "Deroceras reticulatum", "experiment": "Pesticidal activity against Deroceras reticulatum infected oilseed rape assessed as protection against slug damage studied in autumn applied as pellet at 8 kg product/ha after 1 to 4 weeks relative to untreated control", "type": "functional, organism-based"}, "Brassica napus [3]": {"tested_on": "Brassica napus", "experiment": "Phytotoxicity in Brassica napus (oilseed rape) at 58 g a.i/kg applied during seed dressing after 4 weeks studied in autumn (reference value: 89 +/- 2.9 %)", "type": "organism-based", "conditions": "in vivo, other, 672 h"}, "Deroceras reticulatum [4]": {"tested_on": "Deroceras reticulatum", "experiment": "Pesticidal activity against Deroceras reticulatum infected oilseed rape assessed as protection against slug damage studied in spring applied during seed dressing at 60 g a.i/kg seed after 2 to 4 weeks relative to untreated control", "type": "functional, organism-based"}, "Deroceras reticulatum [5]": {"tested_on": "Deroceras reticulatum", "experiment": "Pesticidal activity against Deroceras reticulatum infected oilseed rape assessed as protection against slug damage studied in autumn applied during seed dressing at 58 g a.i/kg seed after 1 to 4 weeks relative to untreated control", "type": "functional, organism-based"}, "Brassica napus [6]": {"tested_on": "Brassica napus", "experiment": "Phytotoxicity in Brassica napus (oilseed rape) at 60 g a.i/kg applied during seed dressing after 4 weeks studied in spring (reference value: 91 +/- 2.8 %)", "type": "organism-based", "conditions": "in vivo, other, 672 h"}, "Deroceras reticulatum [7]": {"tested_on": "Deroceras reticulatum", "experiment": "Pesticidal activity against Deroceras reticulatum infected oilseed rape assessed as protection against slug damage studied in spring applied during seed dressing at 20 g a.i/kg seed after 2 to 4 weeks relative to untreated control", "type": "functional, organism-based"}, "Deroceras reticulatum [8]": {"tested_on": "Deroceras reticulatum", "experiment": "Pesticidal activity against Deroceras reticulatum infected oilseed rape assessed as protection against slug damage studied in autumn applied during seed dressing at 18 g a.i/kg seed after 1 to 4 weeks relative to untreated control", "type": "functional, organism-based"}, "Brassica napus [9]": {"tested_on": "Brassica napus", "experiment": "Phytotoxicity in Brassica napus (oilseed rape) at 20 g a.i/kg applied during seed dressing after 4 weeks studied in spring (reference value: 91 +/- 2.8 %)", "type": "organism-based", "conditions": "in vivo, other, 672 h"}, "Brassica napus [10]": {"tested_on": "Brassica napus", "experiment": "Phytotoxicity in Brassica napus (oilseed rape) at 18 g a.i/kg applied during seed dressing after 4 weeks studied in autumn (reference value: 89 +/- 2.9 %)", "type": "organism-based", "conditions": "in vivo, other, 672 h"}}, "note": "Active and inactive are the calls of the source. The rule behind the calls is not given here.", "data": [{"compound": "CC1OC(C)OC(C)OC(C)O1", "note": "(stereo not given) [METALDEHYDE]", "values": [{"measurement": "Activity", "setting": "Deroceras reticulatum [1]", "result": "Active"}, {"measurement": "Activity", "setting": "Deroceras reticulatum [2]", "result": "Active"}, {"measurement": "Activity", "setting": "Brassica napus [3]", "result": 77, "unit": "%"}, {"measurement": "Activity", "setting": "Deroceras reticulatum [4]", "result": "Active"}, {"measurement": "Activity", "setting": "Deroceras reticulatum [5]", "result": "Active"}, {"measurement": "Activity", "setting": "Brassica napus [6]", "result": 90.3, "unit": "%"}]}, {"compound": "CNC(=O)Oc1cc(C)c(SC)c(C)c1", "note": "[METHIOCARB]", "values": [{"measurement": "Activity", "setting": "Deroceras reticulatum [7]", "result": "Active"}, {"measurement": "Activity", "setting": "Deroceras reticulatum [8]", "result": "Active"}, {"measurement": "Activity", "setting": "Brassica napus [9]", "result": 87.5, "unit": "%"}, {"measurement": "Activity", "setting": "Brassica napus [10]", "result": 86.5, "unit": "%"}]}]}
